Each structure is given as a SMILES string. Structures can show the parent of a compound that is named as a salt. Where two headings read alike, the source gives them in different places.

The test system of data set [1] is mouse neutrophils. The data set is described as follows: ROS inhibition in mouse neutrophils. It is filed as cell-based. The note with it: average of several experiments; for <90% ROS Inhibition: concentration. An excerpt: (§1) PMA was again used to stimulate ROS production in neutrophils and the effects of the drugs were monitored at increasing concentration levels.

The subject of data set [2] is whole blood samples from healthy human subjects. Description: ROS levels in whole blood samples from healthy human subjects, without or with PMA. Format: cell-based. The conditions noted are these: for reduction in ROS in whole blood treated with PMA: higher dose (5 uM). The protocol:
A high and low concentration were tested for each compound. […] Next, the compounds were tested on whole blood treated with PMA.

In data set [3] the test system is human neutrophils. Description: ROS production by PMA-stimulated purified human neutrophils. It is filed as cell-based. The note with it: for ROS production in the presence of PMA: 10 uM concentration; for ROS production in the presence of PMA / <90% ROS Inhibition / IC50: human neutrophils; for ROS inhibitor effectiveness over 100 nm to 10 uM: PMA stimulated human neutrophils; for <90% ROS Inhibition / IC50: PMA stimulated, average of several experiments; for <90% ROS Inhibition: concentration; for IC50: read-out: ROS Inhibition IC50. How it is done:
Following blood withdrawal, blood was overlaid on 3% dextran in 0.9% NaCl in a 1:1 ratio and left at RT for 25 min to allow erythrocyte sedimentation. Residual RBCs were lysed by adding water for 30 sec and stopped by adding 2.5% BSA/5×PBS. WBCs were then diluted in 0.5% BSA/1×PBS and total number of cells was counted. Purification of pure neutrophils (HDNs) was done by overlaying blood after RBC sedimentation in a 1:1 ratio on Histopaque-1077. After 30 min centrifugation at 400 g, pure neutrophils were found at the bottom of the tube (pellet). Mononuclear cells (LDF—low density fraction) settle between the Histopaque-1077 and the 0.9% saline.
(§2) A high-throughput screen was performed to find molecules that inhibit ROS production by neutrophils. Extracted human neutrophils were purified and kept in culture. The cells were then exposed to various drugs and ROS production was monitored over time. Compounds that also scavenged hydrogen peroxide (H2O2) and/or lowered neutrophil ATP levels (reflecting toxicity) were removed. The top hits from the screen were selected for further analysis.
Neutrophils not exposed to PMA were used as a negative control and neutrophils exposed to only PMA were used as a positive control.
as §1

Data set [4] relates to neutrophils isolated from blood. The data set is described as follows: Neutrophil survival by FACS (Annexin V and PI double positive = dead). It is filed as cell-based. The note with it: 2 hours culture, drugs at 1 uM. How it is done: To test this hypothesis, neutrophils isolated from blood were cultured with the various drugs (concentration 1 uM) for 2 hours and then neutrophil survival was monitored by FACS. Cells that were double positive for Anexin V staining and PI staining were considered dead.

The subject of data set [5] is LPS treated mice. The data set is described as follows: ROS in the lungs of LPS treated mice (lung inflammation model). Format: in vivo, mouse.
Method: (5B) Bar graph of relative ROS levels in the lungs of LPS treated mice, LPS treated mice administered free Stelazine, Stelazine loaded naked liposomes and Stelazine loaded targeting-peptide decorated liposomes. (5C) Images of ROS levels in LPS treated lungs administered various compositions of Stelazine and/or naked or peptide-decorated liposomes (referred to as “TENN”). 4 hours following treatment with the described molecules, animals were injected with luminol and ROS in the lungs was quantified using IVIS.
Mice were given 150 ug LPS by inhalation and left for 2 days. […] The LPS was inhaled on Day 0, and then the dosing of the drugs was performed in the evening of day 1 and the morning of day 2. Three different formulations of Stelazine were tested by IV administration: free Stelazine administered in PBS, Stelazine loaded into liposomes in PBS, and Stelazine loaded into liposomes decorated with neutrophil targeting peptides in PBS.
Data set [6] can be described thus: Circulating ALT levels in mice after drug administration. It is filed as in vivo, mouse. The note with it: 48 hours after drug administration. The protocol: One of the benefits of targeting of these drugs directly to neutrophils is to decrease their unwanted side effects. As mentioned early, many of these compounds have known side effects with respect to neutrophil differentiation in the bone marrow. Targeting to mature neutrophils decreases this unwanted side effect. To test if side effects are indeed decreased liver enzyme levels were measured in the mice after administration of free Stelazine and neutrophil targeted Stelazine. […] It is thus clear that neutrophil targeting is particularly beneficial for the selected compounds.

Data set [7] deals with human neutrophils. The data set is described as follows: High-throughput screen for molecules that inhibit ROS production by neutrophils (PMA and fMLP stimulation). Format: cell-based. How it is done: as §2, with “analysis. 160 basal hits were tested for their ability to inhibit neutrophil ROS production. 64 molecules were able to inhibit ROS production in the presence of PMA activation. 67 molecules were able to inhibit ROS production in the presence of N-Formylmethionine-leucyl-phenylalanine (fMLP). Of those 47 molecules were able to inhibit ROS production by both stimulation methods.” for “analysis.”

For orientation: IC50 means the concentration that inhibits the measured activity by half. As to `CN(C)C/C=C/C(=O)Nc1cc2c(Nc3ccc(F)c(Cl)c3)ncnc2cc1O[C@H]1CCOC1` [Afatanib Maleate, Afatinib Maleate], in data set [1] (Neutrophil), inhibition was half-maximal at 2500 nM (IC50). Also, the “<90% ROS Inhibition” value in data set [1] is 8 µM.

Regarding `CN(C)CCCN1c2ccccc2CCc2ccc(Cl)cc21` [Clomipramine], in data set [2] (5 uM), the “ROS inhibition in whole blood treated with PMA” value (from here on “ROS inhibition … with PMA”) is reported as “less strong effect”. The “reduction in ROS in whole blood treated with PMA” value in data set [2] is more than 50%. The “<90% ROS Inhibition” value in data set [1] came to 7 µM. In data set [3], the “ROS production in the presence of PMA” value was “more effective”, the “ROS inhibitor effectiveness over 100 nm to 10 uM” value is “most effective ROS inhibitors” and the “<90% ROS Inhibition” value was found to be 5 µM.

With `CN(C)C(=O)c1cc2cnc(Nc3ccc(N4CCNCC4)cn3)nc2n1C1CCCC1` [Ribociclib], the “ROS production in the presence of PMA” value in data set [3] is given as “more modest reduction”.

Consider `CC(=O)c1c(C)c2cnc(Nc3ccc(N4CCNCC4)cn3)nc2n(C2CCCC2)c1=O` [Palbociclib], for which the “ROS production in the presence of PMA” value in data set [3] is “strongly reduced ROS production”.

Turning to `CC(C)(C)C(=O)/C(=C\c1cccc([N+](=O)[O-])c1)n1cncn1` [Nexinhib], in data set [2] (5 uM), the “ROS inhibition … with PMA” value is listed as “less strong effect”. For the same compound, the “reduction in ROS in whole blood treated with PMA” value in data set [2] is given as more than 50%. The compound further had an IC50 in data set [1] of 8000 nM. Besides, in data set [3], the half-maximal inhibitory concentration (IC50) worked out at 1500 nM and the “<90% ROS Inhibition” value is 5 µM.

As for `CC(C)(C)C(=O)Oc1ccc(S(=O)(=O)Nc2ccccc2C(=O)NCC(=O)O)cc1` [Sivelestat], in data set [4], the “increase in cell death as compared to control” value was less than 6%.

Regarding `CCCCCCCCCCCCCC(=O)O[C@@H]1[C@@H](C)[C@@]2(O)[C@@H](C=C(CO)C[C@]3(O)C(=O)C(C)=C[C@@H]23)[C@@H]2C(C)(C)[C@]12OC(C)=O` [PMA, Phorbol 12-myristate 13-acetate], the “increase in cell death as compared to control” value in data set [4] is recorded as approximately 50%.

For `COC(=O)C1=C(C)NC(C)=C(C(=O)OCC(C)C)C1c1ccccc1[N+](=O)[O-]` (centres unmarked) [Nisoldipine], the “ROS production in the presence of PMA” value in data set [3] was “more modest reduction”.

On to `CN1CCN(CCCN2c3ccccc3Sc3ccc(C(F)(F)F)cc32)CC1` [Stelazine, Trifluoperazine], for which, in data set [1] (Neutrophil), the IC50 worked out at 2500 nM. The “<90% ROS Inhibition” value in data set [1] was 4 µM. In addition, the “ROS levels in LPS treated lungs, luminol/IVIS imaging” value in data set [5] (4 hours following treatment) is recorded as “had an effect on ROS levels”. Moreover, the “reduction in ROS in the lungs as compared to the untreated control” value in data set [5] (IV, 48 hours after LPS administration) is given as approximately 50%. Besides, the “alanine aminotransferase (ALT) levels in the blood” value in data set [6] was “increased alanine aminotransferase (ALT) levels in the blood”. Further, in data set [3], the “ROS production in the presence of PMA” value is “more effective”, the “ROS inhibitor effectiveness over 100 nm to 10 uM” value was “most effective ROS inhibitors” and the “<90% ROS Inhibition” value was 4 µM. Moreover, the IC50 in data set [3] (Neutrophil) is 1000 nM.

In data set [1] (Neutrophil), `CCN1CCN(Cc2ccc(Nc3ncc(F)c(-c4cc(F)c5nc(C)n(C(C)C)c5c4)n3)nc2)CC1` [Abemaciclib] had an IC50 of 1500 nM. For the same compound, the “<90% ROS Inhibition” value in data set [1] came to 5 µM. For the same compound, in data set [3], the “ROS production in the presence of PMA” value was “more effective”, the “ROS inhibitor effectiveness over 100 nm to 10 uM” value is “most effective ROS inhibitors” and the “<90% ROS Inhibition” value came out at 2 µM. For the same compound, in data set [3] (Neutrophil), the IC50 came out at 1000 nM.

Turning to `CCCCOc1ccc(C(=O)CCN2CCCCC2)cc1` [Dyclonine], the IC50 in data set [1] (Neutrophil) worked out at 2000 nM; in data set [3] (Neutrophil), 2500 nM. In addition, the “<90% ROS Inhibition” value in data set [1] came to 5 µM; in data set [3], 7 µM. In data set [3] (10 μM), the “ROS levels relative to unstimulated neutrophils” value was 44 % of negative control cells.

Take `CN(C)C/C=C/C(=O)Nc1cc2c(Nc3ccc(F)c(Cl)c3)ncnc2cc1O[C@H]1CCOC1` [Afatinib]: in data set [3], the “ROS production in the presence of PMA” value is given as “more modest reduction” and the “<90% ROS Inhibition” value was 9 µM. For the same compound, the half-inhibitory concentration (IC50) in data set [3] (Neutrophil) amounted to 4000 nM.

Take `CN(C)CCC=C1c2ccccc2CCc2ccccc21` [Amitriptyline]: the “ROS inhibition in the screen” value in data set [7] was “inhibited ROS production”.

In the case of `COc1cc(Nc2c(C#N)cnc3cc(OCCCN4CCN(C)CC4)c(OC)cc23)c(Cl)cc1Cl` [Bosutinib], the “ROS inhibition … with PMA” value is given as “this inhibition was quickly lost” in data set [2] (1 uM) and “highly effective at ROS inhibition” in data set [2] (5 uM). In addition, the IC50 in data set [1] (Neutrophil) was found to be 150 nM; in data set [3] (Neutrophil) it was 200 nM. The “<90% ROS Inhibition” value in data set [1] worked out at 1.5 µM; in data set [3], 0.75 µM. Moreover, in data set [3], the “ROS production in the presence of PMA” value is recorded as “more effective”. Also, the “ROS inhibitor effectiveness over 100 nm to 10 uM” value in data set [3] is listed as “most effective ROS inhibitors”.

Source of the values: patent US20240358711A1, “COMPOUNDS FOR NEUTROPHIL ROS INHIBITION” (IMMUNYX PHARMA LTD., priority 2021, published 2024).
